Patent US11883525B2, “Bioerodible polyester polymer axitinib ocular implants and related methods of use” (Dose Medical Corporation, priority 2019, dated 2024)

System: persistent retinal vascular leakage
Assay: DL-AAA model of persistent retinal vascular leakage, fluorescein angiography
Assay type: in vivo, DB rabbits
Details: 2-mg injection

## Eylea® (aflibercept): commercial aflibercept product, macromolecular ligand for VEGF, used to validate the model
  duration of effect on leakage: approximately two
